“Also recorded” adds a separate entry of the source.
Tests used:
[1] = tested on: LA samples from TAC banded hearts; experiment: RNA-seq on LA samples from TAC+V and TAC+ATRA hearts; format: in vivo, mice
Description: Activation of the AngII signaling pathway in the LA from pressure overload is a powerful inducer of inflammation, fibrosis, and Cx43 gap junction remodeling. Blockade of AngII signaling can reduce atrial fibrosis and partially rescued Cx43 remodeling. ^38,39

[2] = tested on: TAC banded mice; experiment: ECG in ATRA reversal study (delayed ATRA initiation); format: in vivo; details: TAC+dATRA vs TAC+dV
[3] = tested on: guinea pig HF model; details: cited from earlier work
[4] = tested on: TAC banded mice; experiment: Left atrial fibrosis burden, ImageJ analysis on Masson's trichrome stained sections; format: in vivo; details: for collagen volume fraction in LA: 10 mg/kg/day IP, two weeks
Description: (§1) TAC banding creates a fixed afterload obstruction in the systemic circulation and serves as an excellent model for drug testing as the surgically-induced coarctation cannot be reversed by medical therapy.

[5] = tested on: dissociated neonatal rat cardiac fibroblasts; details: fibroblasts exposed to AngII; cited from earlier work
[6] = tested on: TAC banded mice; experiment: ECG dose-response of ATRA in TAC banded mice; format: in vivo
[7] = tested on: TAC banded mice; experiment: LA fibrosis burden in ATRA reversal study (delayed ATRA initiation); details: delayed treatment with ATRA, TAC banding
[8] = tested on: trans-aortic constriction (TAC) banded mice; experiment: Transthoracic echocardiography in TAC banded mice, ATRA protection study; format: in vivo
Procedure: as §1
The effect of TAC banding on left atrial function was measured next by using reservoir strain analysis. 8,30 Left atrial reservoir strain analysis is a sensitive modality to study left atrial mechanics of both relaxation (conduit strain) and contraction (contractile strain) in an angle-independent fashion.

[9] = tested on: TAC banded hearts; experiment: Atrial arrhythmia inducibility by atrial burst pacing; format: in vivo, mice; details: TAC+ATRA hearts
[10] = tested on: chick embryos; details: excess ATRA; cited from earlier work
[11] = tested on: TLR/NF-KB signaling; details: diabetic kidney; cited from earlier work
[12] = tested on: TAC banded hearts; experiment: Optical mapping of Langendorff-perfused hearts; format: ex vivo, mice; details: Sham+V, TAC+V and TAC+ATRA hearts compared
Procedure: Optical mapping of Langendorff-perfused hearts from Sham+V, TAC+V, and TAC+ATRA hearts. (FIG. 6A) Representative left atrial activation maps at 37° C. Hearts were paced at 100 ms basic cycle length (BCL) from the right atria. (FIG. 6B) Calculated LA conduction velocity (CV). (FIG. 6C) Calculated left ventricular CV (FIG. 6D) ECG tracing of sustained atrial arrythmia in TAC+V heart after atrial burst pacing protocol.^6 (FIG. 6E) Left atrial activation map of sustained atrial arrythmia shown in panel (FIG. 6D). Isochrones are drawn 1 ms apart. Data represent mean+S.E.M. n=4-5 per group. One-way ANOVA was used followed by Tukey's test for multiple comparisons to compare differences between experimental groups. * p-value<0.05, ** p-value<0.005, *** p-value<0.001, **** p-value<0.0001

[13] = tested on: Mice deficient in ALDH1A2; details: maternal supplementation with oral ATRA; cited from earlier work
[14] = tested on: trans-aortic constriction (TAC) banded mice; experiment: Electrocardiogram in TAC banded mice, ATRA protection study; format: in vivo; details: two weeks
Description: as §1
On ECG, the P wave duration is a measure of atrial activation time, the PR interval is a measure of atrial-to-ventricular activation time that includes the atrio-ventricular nodal conduction time, the QRS duration is a measure of ventricular activation time, and the HR-corrected QT (QTc) interval is a measure of ventricular repolarization time. […] In TAC banded mice treated with vehicle control (TAC+V), the heart rate (HR) was increased, the P wave, QRS wave, and QTc interval durations were prolonged, and the PR interval was shortened compared to Sham groups.

[15] = tested on: ALDHIA1 and ALDH1A2; details: in vivo; cited from earlier work
[16] = tested on: CYP26; details: rodents; cited from earlier work
[17] = GO / REACTOME analysis of normalized genes
[18] = TAC+ATRA versus TAC+V LA, P<0.05
[19] = TAC+ATRA vs TAC+V over the dose range
[20] = TAC+ATRA vs TAC+V, 10 mg/kg/day IP, two weeks, 10 mg/kg/day
[21] = TAC+ATRA vs TAC+V, ATRA 10 mg/kg/day IP

Question: Which “pathways of ECM production, pro-inflammatory signaling and vasoconstriction” value [1, 17] does the source give for `CC1=C(/C=C/C(C)=C/C=C/C(C)=C/C(=O)O)C(C)(C)CCC1` [ATRA, all-trans retinoic acid] here?
Answer: significantly downregulated

Question: And the “pathways of mitochondrial energy production and cardiac/atrial development” value [1, 17]?
Answer: significantly upregulated

Question: And the “left atrial Scn5a expression” value ([1]; TAC banded hearts)?
Answer: increases

Question: And the differentially expressed transcripts [1, 18]?
Answer: 4133 transcripts

Question: And the transcripts downregulated [1, 18]?
Answer: 2058 transcripts

Question: And the transcripts upregulated [1, 18]?
Answer: 2075 transcripts

Question: And the “DEGs moving in reciprocal direction to the [TAC vs Sham] dataset (normalization)” value ([1]; [TAC+ATRA vs TAC+V] dataset)?
Answer: 1987 DEGs

Question: What about the “expression of PDGF-A and PDGF-B” value ([1]; pressure overloaded LA) of the same compound?
Answer: reduced expression

Question: What about the “expression of TLR2, NF-KB signaling components, NLRP3 and IL-1b” value ([1]; pressure overloaded LA) of the same compound?
Answer: downregulated

Question: And the “expression of angiotensin converting enzyme (ACE)” value ([1]; pressure overloaded LA)?
Answer: significantly downregulated

Question: And the P wave duration ([2]; 10 mg/kg/day IP started two weeks post-TAC, for two weeks, 10 mg/kg/day)?
Answer: significantly reduces

Question: What about the PR interval ([2]; delayed treatment) of the same compound?
Answer: not significantly different; also recorded: unchanged

Question: And the QRS duration ([2]; delayed treatment)?
Answer: not significantly different; also recorded: unchanged

Question: What about the QTc interval ([2]; delayed treatment) of the same compound?
Answer: not significantly different; also recorded: unchanged

Question: What about the “heart rate (HR)” value ([2]; delayed treatment) of the same compound?
Answer: unchanged

Question: And the “left ventricular systolic function” value [3]?
Answer: improve

Question: And the ventricular fibrosis [3]?
Answer: reduce

Question: And the “collagen volume fraction in LA” value ([4]; Sham+ATRA)?
Answer: 5.3±0.1%

Question: And the “left atrial interstitial and perivascular fibrosis” value ([4]; TAC+ATRA vs TAC+V)?
Answer: reduced; also recorded: limits

Question: What about the “collagen volume fraction in LA” value ([4]; TAC+ATRA) of the same compound?
Answer: 8.3±0.6%

Question: And the TGF-β production [5]?
Answer: reduces

Question: What about the collagen secretion [5] of the same compound?
Answer: reduces

Question: What about the proliferation [5] of the same compound?
Answer: reduces

Question: And the “P wave duration shortening” value ([6]; 20 mg/kg dose compared with 10)?
Answer: no further shortening

Question: And the “reduction of P wave prolongation, dose dependence” value ([6]; 2, 5, 10, 20 mg/kg daily IP, two weeks)?
Answer: dose-dependent fashion

Question: And the “ventricular ectopy (potential cardiotoxicity)” value ([6]; ATRA 20 mg/kg daily IP)?
Answer: increased ventricular ectopy

Question: And the PR interval [6, 19]?
Answer: no significant dose-dependent effect; also recorded: not significantly changed

Question: And the QRS duration [6, 19]?
Answer: no significant dose-dependent effect; also recorded: not significantly changed

Question: And the heart rate [6, 19]?
Answer: no significant dose-dependent effect; also recorded: not significantly changed

Question: What about the “ATRA dose of maximal P wave duration shortening” value ([6]; daily IP, two weeks) of the same compound?
Answer: 10 m/kg

Question: What about the “interstitial and perivascular fibrosis” value [7] of the same compound?
Answer: reverses

Question: What about the “echocardiographic measurements of the LA and LV” value ([8]; Sham+ATRA vs Sham+V, normal pressure conditions) of the same compound?
Answer: no differences

Question: What about the “LV fractional shortening (FS)” value [8, 20] of the same compound?
Answer: equally reduced

Question: And the LV longitudinal strain [8, 20]?
Answer: equally reduced

Question: And the “left atrial mechanics (reservoir strain)” value [8, 20]?
Answer: significant improvement; also recorded: significantly improved

Question: And the “left ventricular hypertrophy (LV wall thickness)” value [8, 20]?
Answer: increased in both TAC+V and TAC+ATRA cohorts

Question: What about the “hearts with sustained atrial arrhythmia (lasting >30 sec) after atrial burst pacing” value [9] of the same compound?
Answer: 0 out of 3

Question: And the atrial size [10]?
Answer: developed enlarged atria

Question: What about the “production of inflammatory cytokines, chemokines, adhesion molecules and growth factors” value [11] of the same compound?
Answer: block cytokine, chemokine, and growth factor production; also recorded: blocks production

Question: What about the “left ventricular CV” value [12] of the same compound?
Answer: not significantly different

Question: And the atrial defects [13]?
Answer: rescue the atrial defects

Question: And the ECG measurements ([14]; Sham+ATRA vs Sham+V, normal pressure conditions, 10 mg/kg/day IP)?
Answer: no differences

Question: What about the “HR-corrected QT (QTc) interval” value [14, 21] of the same compound?
Answer: prolonged equally; also recorded: unchanged

Question: And the P wave duration [14, 21]?
Answer: prevents P wave prolongation; also recorded: reduced to normal levels

Question: What about the PR interval [14, 21] of the same compound?
Answer: does not significantly alter; also recorded: unchanged

Question: And the QRS duration [14, 21]?
Answer: prolonged equally; also recorded: unchanged

Question: What about the “heart rate (HR)” value [14, 21] of the same compound?
Answer: unchanged

Question: For `O=C(NCCCCCCCCNC(=O)C(Cl)Cl)C(Cl)Cl` [WIN18446], which ATRA biosynthesis [15] is on record?
Answer: efficiently block ATRA biosynthesis

Question: Which ATRA levels [16] does the source give for `CCC(CC)C(c1ccc(Nc2nc3ccccc3s2)cc1)n1cncn1` (stereo not shown) [talarozole] here?
Answer: effectively increase ATRA levels

From patent US20250161254A1, “USE OF RETINOIDS FOR TREATMENT OF ATRIAL FIBRILLATION” (NEW YORK UNIVERSITY, priority 2022, published 2025)
